Source: patent US4684739A, “Alkylenedioxybenzene derivatives and acid addition salts thereof” (Mitsubishi Chemical Industries Limited, priority 1980, dated 1987)
Counter-ions that a name gives are not always drawn.

Assays:
[1] = Acute toxicity (LD50) in mice, Litchfield-Wilcoxon method; settings: mouse, in vivo
Method: The values for acute toxicity (LD50 ) were calculated by the Litchfield-Wilcoxon method from the data obtained on mice.

[2] = tested on: spontaneous hypertensive rats (SHR); assay: Hypotensive effect in spontaneous hypertensive rats after oral administration; type: in vivo; settings: Rattus norvegicus, percent drop relative to blood pressure before medication; for inhibition in vivo at 1 mg/kg: 1 mg/kg p.o.; for inhibition in vivo at 3 mg/kg: 3 mg/kg p.o.; for inhibition in vivo at 10 mg/kg: 10 mg/kg p.o.
Method: The hypotensive activities of the compounds of this invention were tested as follows: The test animals used were spontaneous hypertensive rats (SHR) of 5 to 7 month old weighing 300 to 370 g. The blood pressure and the heart rate were measured bloodily under no anesthesia by means of a cathether which has been inserted through the tail's artery under ether anesthesia, thereby determining the average blood pressure and heart rate before medication. […] The hypotensive effect was expressed as percent drop relative to the blood pressure before medication.

SMILES	LD50 ([1]; po) [mg/kg]	inhibition in vivo at 1 mg/kg [2] [%]	inhibition in vivo at 3 mg/kg [2] [%]	inhibition in vivo at 10 mg/kg [2] [%]	LD50 ([1]; ip) [mg/kg]	LD50 ([1]; iv) [mg/kg]
Cl.OC(CNCC1COc2ccccc2O1)COc1ccc2c(c1)OCO2 (stereo not drawn) [Compound 1, 5-[3-{(1,4-benzodioxan-2-ylmethyl)amino}-2-hydroxypropoxy]-1,3-benzodioxole hydrochloride]	515	9.9	15.4	27.6	–	–
OC(CNCC1COc2ccccc2O1)COc1ccc2c(c1)OCCO2 (stereo not drawn) [Compound 2, 6-[3-{(1,4-benzodioxan-2-ylmethyl)amino}-2-hydroxypropoxy]-1,4-benzodioxane]	–	9	20.2	30.4	–	–
Cl.c1ccc2c(c1)OCC(CNCCCOc1ccc3c(c1)OCO3)O2 (stereo not drawn) [Compound 5, 5-[3-{(1,4-benzodioxan-2-ylmethyl)amino}propoxy]-1,3-benzodioxole hydrochloride]	–	–	32.6	47.6	165	–
c1ccc2c(c1)OCC(CNCCCCOc1ccc3c(c1)OCO3)O2 (stereo not drawn) [Compound 6]	–	–	28.5	32	–	–
c1ccc2c(c1)OCC(CNCCCOc1ccc3c(c1)OCCO3)O2 (stereo not drawn) [Compound 7, 6-[3-{(1,4-benzodioxan-2-ylmethyl)amino}propoxy]-1,4-benzodioxane]	–	–	35.2	55.3	–	–
c1ccc2c(c1)OCC(CNCCCOc1ccc3c(c1)OCCCO3)O2 (stereo not drawn) [Compound 9, 1-[3-{(1,4-benzodioxan-2-ylmethyl)amino}propoxy]-3,4-trimethylenedioxybenzene]	–	–	30.1	48.4	–	–
c1ccc2c(c1)OCC(CNCCCCOc1cccc3c1OCO3)O2 (stereo not drawn) [Compound 10]	–	–	30.6	40	–	–
Cl.O=C(CNCC1COc2ccccc2O1)c1ccc2c(c1)OCO2 (stereo not drawn) [Compound 12, 5-[2-{(1,4-benzodioxan-2-ylmethyl)amino}acetyl]-1,3-benzodioxole hydrochloride]	1350	20.1	28.2	42.3	–	–
c1ccc2c(c1)OCC(CNCCCCc1ccc3c(c1)OCCO3)O2 (stereo not drawn) [Compound 16, 6-[4-{(1,4-benzodioxan-2-ylmethyl)amino}butyl]-1,4-benzodioxane]	–	12.1	33.7	50	–	31
c1ccc2c(c1)OCC(CNCCCCc1ccc3c(c1)OCCCO3)O2 (stereo not drawn) [Compound 17, 1-[4-{(1,4-benzodioxan-2-ylmethyl)amino}butyl]-3,4-trimethylenedioxybenzene hydrochloride]	–	20.1	29.7	–	–	–
O=C(CCNCC1COc2ccccc2O1)Nc1ccc2c(c1)OCO2 (stereo not drawn) [Compound 18, N-[3-{(1,4-benzodioxan-2-ylmethyl)amino}propionyl]-3,4-methylenedioxyaniline]	–	11.9	27.5	41	–	–
c1ccc2c(c1)OCC(CNCCCNc1ccc3c(c1)OCO3)O2 (stereo not drawn) [Compound 19, N-[3-{(1,4-benzodioxan-2-ylmethyl)amino}propyl]-3,4-methylenedioxyaniline]	–	19.6	27.8	44.3	–	–
OC(CNCC1COc2ccccc2O1)c1ccc2c(c1)OCCO2 (stereo not drawn) [Compound 21, 6-[2-{(1,4-benzodioxan-2-ylmethyl)amino}-1-hydroxyethyl]-1,4-benzodioxane]	–	9.8	19.5	39.1	–	–
c1ccc2c(c1)OCC(CNCCOc1cccc3c1OCO3)O2 (stereo not drawn) [Compound 26, reference compound]	–	–	3.5	8.1	–	–
O=C(CCNCC1COc2ccccc2O1)c1ccc2c(c1)OCO2 (stereo not drawn) [Compound 27, reference compound]	–	7.8	12.8	30.3	–	–
